The test system of this test is CEM cells HIV-1 protection, formazan growth assay. As to the kind of experiment: NCI AIDS Antiviral Assay. The settings on record: for IC50: measured here: growth of uninfected CEM cells. The procedure, abridged: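 CEM (human) cells, HIV-1 infected vs uninfected, 5-point dosing, formazan growth read-out. Retest threshold 50% protection.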

The structures appear in SMILES notation. “And” between values parts separate entries of the source, which are not always exact repeats. Identical values can stand only once. The source made the active and inactive calls.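 Rule for the calls: active = compounds giving half or more protection of infected cells from virus-caused growth loss, again on retest; inactive = the rest.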 Where a SMILES comes first, the peptide text is derived from it. A value given as a limit tells only on which side of the number the result lay.

`NC(=O)C#CC#CC#CCO`: the EC50 was more than 891 µM and the IC50 is 0.479 µM.

As to `CC(=O)O[C@H]1[C@H](OC(C)=O)[C@@H](CN=[N+]=[N-])OCO[C@@H]1CN=[N+]=[N-]`, the outcome was inactive.

For the molecule `CC(C)OP(=O)(OC(C)C)/C(=N/Nc1ccc([N+](=O)[O-])cc1)NNC(N)=O`, the EC50 is more than 89.1 µM and the IC50 stood at 26.3 µM.

Take `CC(C)(C)OC(=O)N[C@@H](Cc1ccccc1)CN1CCCC1C(=O)O` (stereo not given in full): the EC50 was more than 3390 µM and the IC50 was determined as 2570 µM.

Turning to `COc1ccc(C(c2ccccc2)C(C)C(=O)c2c(C)cc(C)cc2C)cc1` (stereo not given), the EC50 was more than 19.5 µM and the IC50 is more than 19.5 µM.

For the molecule `O=C1NS(=O)(=O)c2ccccc21`, the EC50 was more than 1200 µM and the concentration for half-maximal inhibition (IC50) was more than 1200 µM.

With `O=S(=O)(/C=C/c1ccc(F)cc1)Cc1ccc(CS(=O)(=O)/C=C/c2ccc(F)cc2)cc1`, the EC50 was more than 27.5 µM and the IC50 is more than 27.5 µM.

For the molecule `Clc1ncccc1SSc1cccnc1Cl`, the EC50 was more than 200 µM and the IC50 came out at 89.1 µM.

Take `O=C1C2C3CCC(O3)C2C(=O)N1N1C(=O)C2C3CCC(O3)C2C1=O` (stereo not given): the EC50 is more than 200 µM and the IC50 was found to be 43.7 µM.

In the case of `NC1=NN(c2ccccc2)C2(O)c3ccncc3C3=NN(c4ccccc4)C(=O)C132` (stereo not given), the EC50 is more than 200 µM and the IC50 was more than 200 µM.

As to `OCC(O)C(OC1OC(CO)C(O)C(O)C1O)c1nn(-c2ccc(F)cc2)c2nc3cc(Cl)c(Cl)cc3cc12` (stereo not given), the outcome was inactive.

For the molecule `C=CCC[P+](c1ccccc1)(c1ccccc1)c1ccccc1`, the EC50 was more than 200 µM and the IC50 was determined as 2.24 µM.

In the case of `COc1ccccc1NC(=O)C(CC(C(=O)Nc1ccccc1OC)/C(C)=N/Nc1ccc([N+](=O)[O-])cc1[N+](=O)[O-])/C(C)=N/Nc1ccc([N+](=O)[O-])cc1[N+](=O)[O-]` (stereo not given), the EC50 is more than 9.12 µM and the IC50 was more than 9.12 µM.

On to `COC(=O)C(C(=O)C(=O)Nc1c(C)cccc1C)c1cnc2ccccc2n1` (stereo not given), for which the EC50 is more than 50.1 µM and the IC50 was more than 50.1 µM.

For `CCOC(=O)C(=C=Cc1cccs1)C(=O)c1ccccc1`, the EC50 was more than 120 µM and the IC50 worked out at 53.7 µM.

For `Clc1ccc(CNCCCNCc2ccc(Cl)cc2Cl)c(Cl)c1`, the EC50 was more than 200 µM and the IC50 came out at 22.4 µM.

Take `CSc1ccc(/C=C2/C[N+](C)(C)C/C(=C/c3ccc(SC)cc3)C2=O)cc1`: the EC50 was more than 129 µM and the IC50 was determined as 12.3 µM.

Take `CSC(=S)OC1C(CO[Si](C)(C)C(C)(C)C)OC2OC(C)(C)OC21` (stereo not given): the result was inactive.

On to `CC(=O)NC(C(=O)NC(C)C(=O)N1CCCC1C(=O)O)C(C)C` (stereo not drawn) (Ac-Val-Ala-Pro-OH; configuration not given here), for which the EC50 was more than 200 µM and the IC50 was more than 200 µM.

On to `C[N+](C)(C)CCCS(=O)(=O)[O-]`, for which the EC50 was more than 200 µM and the IC50 is more than 200 µM.

`O=c1cc(NCc2ccncc2)[nH]c(=O)[nH]1`: the outcome was inactive.

Take `CC(=O)Nc1ccc(S(=O)(=O)N/N=C/c2cc(I)cc([N+](=O)[O-])c2O)cc1`: the EC50 is more than 501 µM and the IC50 was 79.4 µM.

As for `CC(=O)OCC1OC(SC2=N/C(=C\c3cc4c(=O)c5ccccc5sc4s3)C(=O)N2c2ccccc2)C(OC(C)=O)C(OC(C)=O)C1OC(C)=O` (stereo not given), the EC50 was more than 200 µM and the IC50 turned out to be 115 µM.

As for `O=C(O)CCC(=O)NC(c1ccccc1)c1ccccc1`, the EC50 was more than 200 µM and the IC50 was more than 200 µM.

Turning to `CSC1C(=O)Nc2ccc3ccccc3c21` (stereo not given), the EC50 was more than 200 µM and the IC50 was 10.2 µM.

As for `COP1(=O)NCc2ncccc2O1` (stereo not given), the EC50 is more than 200 µM and the IC50 is more than 200 µM.

With `Cc1ccc(C2=Nn3c(nc4sc5c(c4c3=O)CCCC5)SC2)cc1`, the EC50 was more than 200 µM and the IC50 is more than 200 µM.

Take `Cc1c(NC(=O)CSC(=S)N(C)C)c(=O)n(-c2ccccc2)n1C`: the EC50 is 89.1 µM and the IC50 is more than 200 µM.

`CCCc1cc(=O)oc2c3c(c4c(c12)OC(C)(C)C=C4)O[C@H](C)[C@@H](C)[C@@H]3OC(=O)CCl`: the EC50 is 4.57 µM and the IC50 came out at 15.8 µM.

With `CSc1s[s+]c(SC)c1[O-]`, the outcome was inactive.

Regarding `CCOC(=O)/C=C1\c2ccccc2C(=O)N1CC(=O)OCC`, the outcome was inactive.

As to `CCCCc1nc(C)oc1C(C)C`, the EC50 was more than 200 µM and the IC50 is more than 200 µM.

Regarding `CN(NC(=O)CCCl)C1=NCCN1`, the EC50 was more than 200 µM and the IC50 was more than 200 µM.

For `Nc1ncnc2c1ncn2C1OC2(CCSC2)C(O)C1O` (stereo not given), the EC50 is more than 200 µM and the IC50 was 155 µM.

For the molecule `O=C(O)c1ccc2c3c(n[se]c13)-c1ccccc1C2=O`, the EC50 was more than 8.32 µM and the IC50 is more than 8.32 µM.

For the molecule `CN(C)CC(C)(C)C(=O)/C=C/c1ccccc1`, the result was inactive.

On to `Nc1ccc(C(=O)Nc2ccc(/C=C/c3ccc(NC(=O)c4ccc(N)cc4S(=O)(=O)O)cc3S(=O)(=O)O)c(S(=O)(=O)O)c2)c(S(=O)(=O)O)c1`, for which the EC50 was 22.4 µM and the IC50 worked out at 89.1 µM.

As to `CCOC(=O)C1C(=S)NC(=O)C1C#N` (stereo not given), the outcome was inactive.

Turning to `O=C1[C@@H]2C3c4ccccc4C([C@@H]2C(=O)N1c1ccccc1)S3(=O)=O`, the outcome was inactive.

With `CCOC(=O)c1c(-c2ccc(O)c(OC)c2)c(C#N)c(=S)n(C2OC(COC(C)=O)C(OC(C)=O)C(OC(C)=O)C2OC(C)=O)c1-c1ccccc1` (stereo not given), the EC50 is more than 200 µM; the IC50 is 91.2 µM and 64.6 µM.

Take `O=C(/C=C/c1ccc(Cl)c(Cl)c1)c1ccccc1Cl`: the EC50 was more than 2.4 µM and the IC50 was more than 2.4 µM.

`CC1CCC2(CC1)NN=c1s/c(=C\c3ccc(O)cc3)c(=O)n1N2` (stereo not given): the outcome was inactive.

With `NC(N)=N/N=C/c1c(Cl)nc2n1CCS2`, the EC50 is more than 200 µM and the IC50 turned out to be 102 µM.

As to `CCCCSc1nc2c(=O)[nH][nH]c(=O)c2n1Cc1ccccc1`, the EC50 was more than 200 µM and the IC50 is 158 µM.

Regarding `CCOC(=O)CCC(NC(=O)N1CCN(c2c(C)nc(C)[nH]c2=O)CC1)C(=O)OCC` (stereo not given), the EC50 was more than 200 µM and the IC50 was more than 200 µM.

For the molecule `N#C/C(=C1\SC(=O)CN1c1ccccc1)c1nc2ccccc2o1`, the EC50 is more than 200 µM and the IC50 was more than 200 µM.

`Cc1ccc2c(c1)CN1c3ccc(C)cc3CN2C1c1ccccc1O`: the outcome was inactive.

As for `Clc1ccc(NCc2nnc(CCCCCCCCc3nnc(CNc4ccc(Cl)cc4)o3)o2)cc1`, the EC50 is more than 200 µM and the IC50 is more than 200 µM.

As to `Cc1ccc2c(c1N)C(=O)c1ccccc1C2=O`, the EC50 was more than 200 µM and the IC50 was determined as 123 µM.

As for `O=Cc1cc(O)ccc1Br`, the EC50 is more than 200 µM and the IC50 worked out at 2.95 µM.

Turning to `CC(=O)c1nc2ccccc2n1CC(=O)c1ccc([N+](=O)[O-])cc1`, the EC50 was more than 200 µM and the IC50 came to 7.59 µM.

Turning to `O=[N+]([O-])c1cc2ccc1OCc1cccc(n1)COc1ccc(cc1[N+](=O)[O-])C=NCCCCCCCCN=C2`, the EC50 was more than 200 µM and the IC50 is more than 200 µM.

Consider `N/C(=N\N=C\c1cccc2ccccc12)N/N=C/c1cccc2ccccc12`, for which the EC50 was more than 200 µM and the IC50 is 9.12 µM.

The EC50 is the concentration giving half of the maximal effect. As usually defined, the IC50 is the concentration needed to halve the response being measured.

Source of the values: PubChem BioAssay AID179 (DTP/NCI, 2004).
